Data published in publication PMC7415810, “A novel nucleolin-binding peptide for Cancer Theranostics” (Theranostics, 2020).

How the values were obtained:
[1] = test system: MDA-MB-231; assay: Whole-cell binding assay on OBOC peptide beads; assay type: cell-based, human; conditions: peptide on TentaGel beads incubated with cells at 10^6 cells/ml; repeated 3 times
Protocol: (§1) The beads were washed extensively with double-distilled water and phosphate-buffered saline (PBS; Welgene Inc., Korea) before screening. Cancer and normal cells were detached from culture dishes with trypsin/EDTA (Gibco), washed with their corresponding culture medium, resuspended at 10^6 cells/ml, and incubated with OBOC beads in Petri dishes in a humidified CO2 incubator at 37 °C with shaking (60 rpm). Beads bound by cells appeared under a microscope as rosettes in which a central bead was covered by one or more layers of cells. The positive beads were picked with a pipette under an inverted microscope, treated with guanidine-HCL (8 M, 20 min) to remove cells and proteins on the bead surface, and subjected to a second round of screening with normal breast epithelial cells to eliminate false positive binding.
(§2) Note : Semiquantitative relative binding activity: “++++” very strong binding (>40 cells per bead), “+++” strong binding (30
(§3) -20 cells per bead), “+ +” moderate binding (20 - 10 cells per bead), “+” weak binding (5-10 cells per bead), “-” no binding. […]
(§4) Figure S1. A, Steps performed in peptide library synthesis and screening. 1, The split-mix synthesis method was performed to construct the combinatorial OBOC libraries. […]
(§5) sized. 3, OBOC libraries were incubated with cancer cells in a CO2 incubator. 4, Beads carrying ligands with an affinity for cell surface molecules became covered with cells. 5, The positive beads were picked with a pipette under an inverted microscope. 6, The peptide sequences for positive beads were determined by Edman microse - […]
(§6) peptide libraries. B, The binding specificities of the peptides against cancer cell and normal cells were deter- […]
(§7) breast and colorectal cancer cells and normal breast and colorectal cells were re-suspended at 10^6 cells/ml and incubated with beads. All experiments were repeated 3 times. Scale bar, 200 μm.

[2] = test system: MCF-10A; assay: Whole-cell binding assay on OBOC peptide beads; assay type: cell-based, human; set-up: key: ++++: very strong binding (>40 cells per bead); +++: strong binding (30 -20 cells per bead); ++: moderate binding (20 - 10 cells per bead); +: weak binding (5-10 cells per bead); -: no binding; conditions: peptide on TentaGel beads incubated with cells at 10^6 cells/ml; repeated 3 times
Protocol: as §1, §2, §3, §4, §5, §6, §7

[3] = test system: MDA-MB-231 cells; assay: cells; conditions: read-out: IC50, MDA-MB-231 cells; 48 h treatment, WST-1
Protocol: (§8) Cancer and normal cells (1 × 10^4 cells/well) were seeded in 96-well plates, incubated for 24 h, and then treated with increasing concentrations of AGM-330, PTX, and AGM-330-PTX for 48 h. Cell viability was assessed by the CellVia WST-1 assay (Young In Frontier) according to the manufacturer's instructions. The numbers of viable cells were measured at a wavelength of 450 nm using a VersaMax ELISA plate reader (Molecular Devices, San Jose, CA, USA).
(§9) Figure S3. A-C, Cancer and normal cells (1 × 10^4 cells/well) were seeded in 96-well plates. After 24 h of incuba-tion, the cells were treated with an increasing concentration of dimeric or tetrameric AGM-330 for 48 h. The viability of cells grown in 0 % FBS (A), 5 % FBS (B) or 10 % FBS (C) was assessed by a CellVia WST-1 assay (Young In Frontier, Seoul, Korea) according to the manufacturer’s instruction. The numbers of viable cells were measured at a wavelength of 450 nm using an VersaMax ELISA plate reader (Molecular Devices). D, E, Binding specificity of AGM-330. A whole-cell binding assay was performed to determine the cell binding of AGM-330 in 1 % FBS (D) or 5 % FBS (E). Scale bar, 200 μm.

[4] = test system: MCF-10A cells; assay: cells; conditions: read-out: IC50, MCF-10A cells; 48 h treatment, WST-1
Protocol: as §8, §9

[5] = in vivo; conditions: mouse, iv
Protocol: After 15 min of centrifugation at 5,000 rpm and 4 °C, the plasma was obtained and stored at -80 °C. Plasma peptide concentrations were quantified by ELISA, and pharmacokinetic profiles were analyzed using Phoenix WinNonlin 8.1 (Pharsight Corporation, Mountain View, CA, USA). The area under the plasma concentration-time curve (AUC), distribution half-time (T1/2), maximum plasma concentration (Cmax) and time required to reach maximum plasma concentration (Tmax) values were directly determined from the experimental data. […]
bated at 37 °C for 0, 3, 6, 9, and 24 h. The portion of serum-treated peptide remaining was determined by calcu-lating the height of the respective elution peak in analytical-HPLC and comparing it with control without incuba- […]
Plasma peptide concentrations were quantified by ELISA, and pharmacokinetic profiles were analyzed using Phoenix WinNonlin 8.1 (Pharsight Corporation, Mountain View, CA, USA). The data are presented as the means ± standard deviation.

[6] = test system: PI3K/Akt phosphorylation in MDA-MB-231 cells; assay: Immunoblot analysis of PI3K/Akt signaling; assay type: cell-based, human; conditions: AGM-330 10, 50, 100 μM, anti-NCL antibody 20, 50 μg/mL
Protocol: Cells were washed with PBS and lysed on ice for 30 min. Protein extracts were mixed with loading buffer, and boiled at 100 °C for 5 min. A total volume of 50 µl of the denatured protein samples were loaded on 10% gels. A voltage of 80 V was applied to samples and then adjusted to 120 V when protein reached the separation gel. Next, protein was transferred to PVDF membranes for 2 h at 4 °C. PVDF membranes were washed with TBS-T 3 times, and blocked with skim milk for 1 h at room temperature. Primary antibodies were used to detect AKT (1:1000; Abcam), p-AKT (1:1000; Abcam), PI3K (1:1000; Abcam), p-PI3K (1:1000; Abcam). Membranes were treated with primary antibody overnight at 4 °C, washed with TBS-T, and incubated with secondary antibody for 1 h at room temperature. Membranes were washed and developed.
Figure S8. A-D, Western blot analysis of PI3K/Akt signaling in MDA-MB-231 cells stimulated by increasing
concentrations of an anti-NCL antibody and AGM-330. After treatment with the anti-NCL antibody (A,B) or
AGM-330 (C,D), the protein levels of p-PI3K, PI3K, p-Akt and Akt were assessed by immunoblot analysis. The

**Q.** Which “Semiquantitative relative binding activity, MDA-MB-231” value [1] does the source give for `CSCC[C@H](NC(=O)[C@H](C)NC(=O)CNC(=O)[C@H](Cc1c[nH]cn1)NC(=O)[C@@H](N)CCCNC(=N)N)C(=O)N[C@H](C(=O)N[C@@H](Cc1ccc(O)cc1)C(=O)N[C@@H](CC(C)C)C(=O)N[C@@H](CCCCN)C(=O)NCCOCCOCCOCCOCCOCCOCCOCCOCCOCCOCCOCCOCCC(=O)NCCCC[C@H](NC(=O)CCOCCOCCOCCOCCOCCOCCOCCOCCOCCOCCOCCOCCNC(=O)[C@H](CCCCN)NC(=O)[C@H](CC(C)C)NC(=O)[C@H](Cc1ccc(O)cc1)NC(=O)[C@@H](NC(=O)[C@H](CCSC)NC(=O)[C@H](C)NC(=O)CNC(=O)[C@H](Cc1c[nH]cn1)NC(=O)[C@@H](N)CCCNC(=N)N)C(C)C)C(=O)NCCCC[C@H](NC(=O)[C@H](CCCCNC(=O)CCOCCOCCOCCOCCOCCOCCOCCOCCOCCOCCOCCOCCNC(=O)[C@H](CCCCN)NC(=O)[C@H](CC(C)C)NC(=O)[C@H](Cc1ccc(O)cc1)NC(=O)[C@@H](NC(=O)[C@H](CCSC)NC(=O)[C@H](C)NC(=O)CNC(=O)[C@H](Cc1c[nH]cn1)NC(=O)[C@@H](N)CCCNC(=N)N)C(C)C)NC(=O)CCOCCOCCOCCOCCOCCOCCOCCOCCOCCOCCOCCOCCNC(=O)[C@H](CCCCN)NC(=O)[C@H](CC(C)C)NC(=O)[C@H](Cc1ccc(O)cc1)NC(=O)[C@@H](NC(=O)[C@H](CCSC)NC(=O)[C@H](C)NC(=O)CNC(=O)[C@H](Cc1c[nH]cn1)NC(=O)[C@@H](N)CCCNC(=N)N)C(C)C)C(=O)N[C@@H](CS)C(=O)O)C(C)C` [AGM-330] here?
**A.** ++++ (very strong binding (>40 cells per bead))

**Q.** And the “Semiquantitative relative binding activity, MCF-10A” value [2]?
**A.** -

**Q.** And the IC50 [3]?
**A.** > 100 µM

**Q.** And the IC50 [4]?
**A.** > 100 µM

**Q.** What about the Cmax [5] of the same compound?
**A.** 1880 ± 670 ng/mL

**Q.** What about the T1/2 [5] of the same compound?
**A.** 566 ± 72.6 min

**Q.** And the Tmax [5]?
**A.** 10 min

**Q.** And the “peptide remaining after 24 h in vivo” value [5]?
**A.** more than 25%

**Q.** What about the “effect on PI3K/Akt phosphorylation” value [6] of the same compound?
**A.** did not suppress
